# Reference: ChEMBL document CHEMBL1201862, “PubChem BioAssay data set” (2004)
#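 Following 48 hours of exposure in 96-well plates, responses at five concentrations were used to interpolate endpoints linearly. Here, GI50 denotes the concentration required for 50% inhibition of growth.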 Activity calls are given as the source filed them. Cut-off read from the data, not from the text of the source: active = GI50 up to about 1.1 µM and inactive = higher.
# Key:
# Assay in all cases: NCI tumour cell line growth inhibition, 48 h
# NCI-H23 = tested on: NCI-H23
# SR = tested on: SR
# NCI-H522 = tested on: NCI-H522
# PC-3 = tested on: PC-3
# TK-10 = tested on: TK-10
# MOLT-4 = tested on: MOLT-4
# HCT-15 = tested on: HCT-15
# CCRF-CEM = tested on: CCRF-CEM
# IGROV-1 = tested on: IGROV-1
# SK-MEL-2 = tested on: SK-MEL-2
# UO-31 = tested on: UO-31
# SNB-75 = tested on: SNB-75
# A549 = tested on: A549
# OVCAR-8 = tested on: OVCAR-8
# MDA-MB-435 = tested on: MDA-MB-435
# SK-MEL-5 = tested on: SK-MEL-5
# SF-539 = tested on: SF-539
# HCC 2998 = tested on: HCC 2998
# SN12C = tested on: SN12C
# T47D = tested on: T47D
# KM12 = tested on: KM12
# RPMI-8226 = tested on: RPMI-8226
# MCF7 = tested on: MCF7
# CAKI-1 = tested on: CAKI-1
# OVCAR-4 = tested on: OVCAR-4
# SF-268 = tested on: SF-268
# MDA-N = tested on: MDA-N
# SK-MEL-28 = tested on: SK-MEL-28
# COLO 205 = tested on: COLO 205
# NCI-H226 = tested on: NCI-H226
# HCT-116 = tested on: HCT-116
# HT-29 = tested on: HT-29
# OVCAR-3 = tested on: OVCAR-3
# HOP-62 = tested on: HOP-62
# RXF 393 = tested on: RXF 393
# HOP-92 = tested on: HOP-92
# 786-0 = tested on: 786-0
# SNB-19 = tested on: SNB-19
# SF-295 = tested on: SF-295
# UACC-62 = tested on: UACC-62
# SK-OV-3 = tested on: SK-OV-3
# NCI-H460 = tested on: NCI-H460
# OVCAR-5 = tested on: OVCAR-5
# LOX IMVI = tested on: LOX IMVI
# BT-549 = tested on: BT-549
# ACHN = tested on: ACHN
# HL-60 = tested on: HL-60
# UACC-257 = tested on: UACC-257
# SW-620 = tested on: SW-620
# U-251 = tested on: U-251
# Malme-3M = tested on: Malme-3M
# K562 = tested on: K562
# DU-145 = tested on: DU-145
# Hs-578T = tested on: Hs-578T
# M14 = tested on: M14
# EKVX = tested on: EKVX
# A498 = tested on: A498
# MDA-MB-231 = tested on: MDA-MB-231
# NCI/ADR-RES = tested on: NCI/ADR-RES
smiles,measurement,setting,value
Cc1c(C#N)c2nnn(-c3ccc(Cl)cc3)c(=O)n2c1-c1ccccc1,GI50,NCI-H23,0.167 µM (active)
same,GI50,SR,< 21.2 nM (active)
same,GI50,NCI-H522,58.6 nM (active)
same,GI50,PC-3,45.9 nM (active)
same,GI50,TK-10,0.476 µM (active)
same,GI50,MOLT-4,63 nM (active)
same,GI50,HCT-15,0.0628 µM
same,GI50,CCRF-CEM,99.1 nM (active)
same,GI50,IGROV-1,0.113 µM (active)
same,GI50,SK-MEL-2,74.6 nM (active)
same,GI50,UO-31,3.29 µM (inactive)
same,GI50,SNB-75,275 nM (active)
same,GI50,A549,0.166 µM (active)
same,GI50,OVCAR-8,163 nM (active)
same,GI50,MDA-MB-435,< 18.8 nM (active)
same,GI50,SK-MEL-5,60.5 nM (active)
same,GI50,SF-539,49.2 nM (active)
same,GI50,HCC 2998,71.3 nM (active)
same,GI50,SN12C,107 nM (active)
same,GI50,T47D,6.58 µM (inactive)
same,GI50,KM12,51 nM (active)
same,GI50,RPMI-8226,160 nM (active)
same,GI50,MCF7,420 nM (active)
same,GI50,CAKI-1,0.251 µM (active)
same,GI50,OVCAR-4,351 nM (active)
same,GI50,SF-268,199 nM (active)
same,GI50,MDA-N,17.3 nM (active)
same,GI50,SK-MEL-28,10.7 µM (inactive)
same,GI50,COLO 205,35.7 nM (active)
same,GI50,NCI-H226,0.114 µM (active)
same,GI50,HCT-116,64.9 nM (active)
same,GI50,HT-29,55.3 nM (active)
same,GI50,OVCAR-3,47 nM (active)
same,GI50,HOP-62,108 nM (active)
same,GI50,RXF 393,76.4 nM (active)
same,GI50,HOP-92,474 nM (active)
same,GI50,786-0,120 nM (active)
same,GI50,SNB-19,195 nM (active)
same,GI50,SF-295,0.0531 µM (active)
same,GI50,UACC-62,149 nM (active)
same,GI50,SK-OV-3,145 nM (active)
same,GI50,NCI-H460,99.1 nM (active)
same,GI50,OVCAR-5,0.247 µM (active)
same,GI50,LOX IMVI,221 nM (active)
same,GI50,BT-549,0.37 µM (active)
same,GI50,ACHN,0.929 µM (active)
same,GI50,HL-60,75.2 nM (active)
same,GI50,UACC-257,3.15 µM (inactive)
same,GI50,SW-620,113 nM (active)
same,GI50,U-251,81.5 nM (active)
same,GI50,Malme-3M,46.8 nM (active)
same,GI50,K562,58.6 nM (active)
same,GI50,DU-145,89.5 nM (active)
same,GI50,Hs-578T,158 nM (active)
same,GI50,M14,60.8 nM (active)
same,GI50,EKVX,0.237 µM (active)
same,GI50,A498,0.124 µM (active)
same,GI50,MDA-MB-231,102 nM (active)
same,GI50,NCI/ADR-RES,0.0693 µM (active)
COc1ccc(OC)c(C2CCc3nc4nc(N)nc(N)c4cc3C2)c1 (stereo not drawn),GI50,NCI-H23,18.5 µM (inactive)
same,GI50,SR,2480 nM (inactive)
same,GI50,NCI-H522,2190 nM (inactive)
same,GI50,PC-3,3560 nM (inactive)
same,GI50,TK-10,9.77 µM (inactive)
same,GI50,MOLT-4,2120 nM (inactive)
same,GI50,HCT-15,14.1 µM
same,GI50,CCRF-CEM,2960 nM (inactive)
same,GI50,IGROV-1,10.2 µM (inactive)
same,GI50,SK-MEL-2,1970 nM (inactive)
same,GI50,UO-31,3.25 µM (inactive)
same,GI50,SNB-75,1940 nM (inactive)
same,GI50,A549,14.7 µM (inactive)
same,GI50,OVCAR-8,2470 nM (inactive)
same,GI50,MDA-MB-435,2040 nM (inactive)
same,GI50,SK-MEL-5,5050 nM (inactive)
same,GI50,SF-539,3010 nM (inactive)
same,GI50,HCC 2998,1740 nM (inactive)
same,GI50,SN12C,1770 nM (inactive)
same,GI50,T47D,1.94 µM (inactive)
same,GI50,KM12,2290 nM (inactive)
same,GI50,RPMI-8226,5780 nM (inactive)
same,GI50,MCF7,1890 nM (inactive)
same,GI50,CAKI-1,20.8 µM (inactive)
same,GI50,OVCAR-4,2070 nM (inactive)
same,GI50,SF-268,2960 nM (inactive)
same,GI50,MDA-N,2130 nM (inactive)
same,GI50,SK-MEL-28,2.4 µM (inactive)
same,GI50,COLO 205,3320 nM (inactive)
same,GI50,NCI-H226,8.47 µM (inactive)
same,GI50,HCT-116,1830 nM (inactive)
same,GI50,HT-29,3010 nM (inactive)
same,GI50,OVCAR-3,1820 nM (inactive)
same,GI50,HOP-62,2130 nM (inactive)
same,GI50,RXF 393,2690 nM (inactive)
same,GI50,HOP-92,2190 nM (inactive)
same,GI50,786-0,2690 nM (inactive)
same,GI50,SNB-19,2430 nM (inactive)
same,GI50,SF-295,11.7 µM (inactive)
same,GI50,UACC-62,2030 nM (inactive)
same,GI50,SK-OV-3,4100 nM (inactive)
same,GI50,NCI-H460,4660 nM (inactive)
same,GI50,OVCAR-5,9.35 µM (inactive)
same,GI50,LOX IMVI,3120 nM (inactive)
same,GI50,BT-549,6.9 µM (inactive)
same,GI50,ACHN,12 µM (inactive)
same,GI50,HL-60,2640 nM (inactive)
same,GI50,UACC-257,2.48 µM (inactive)
same,GI50,SW-620,2860 nM (inactive)
same,GI50,U-251,1760 nM (inactive)
same,GI50,Malme-3M,1920 nM (inactive)
same,GI50,K562,2310 nM (inactive)
same,GI50,DU-145,5660 nM (inactive)
same,GI50,Hs-578T,3750 nM (inactive)
same,GI50,M14,1800 nM (inactive)
same,GI50,EKVX,13.4 µM (inactive)
same,GI50,A498,12.7 µM (inactive)
same,GI50,MDA-MB-231,2350 nM (inactive)
same,GI50,NCI/ADR-RES,> 100 µM (inactive)
